Measurements: patent US8088791B2, “Antibacterial agents” (Biots Scientific Management Pty Ltd, priority 2006, dated 2012)
Like-named read-outs stand apart in the source and are kept apart here.

Legend:
Type in all cases: cell-based
Bacillus subtilis 168CA = experiment: Minimum Inhibitory Concentration (MIC) testing, broth microdilution, Bacillus subtilis; conditions: Bacillus subtilis 168CA; read-out: Bacillus subtilis MICs Activity
Procedure, shortened: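 MICs were scored A (≦8 μg/ml), B (16–64 μg/ml) or C (>64 μg/ml), read as the lowest concentration preventing visible growth by eye and spectrophotometry. Plates incubated overnight (16–20 h) at 37 °C, inoculum OD 0.09 diluted 1:100 in 2× broth, per NCCLS guidelines.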

[1] = system: Staphylococcus aureus ATCC29213; experiment: Minimum Inhibitory Concentration (MIC) testing, broth microdilution, Staphylococcus aureus; conditions: Staphylococcus aureus ATCC29213; read-out: Staphylococcus aureus MICs Activity
Procedure, shortened: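 Broth microdilution per NCCLS M7-A5 in Mueller Hinton broth, with compound in 1.6% DMSO and inoculum at OD 0.09 diluted 1:100. Plates incubated 16–20 h at 37°C. MIC is the lowest concentration with no visible growth; scored A ≤8, B 16–64, C >64 μg/ml.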

[2] = system: various bacterial species; experiment: Minimum Inhibitory Concentration (MIC) testing, broth microdilution, other bacterial species
Experimental: Compounds of this invention were tested for antimicrobial activity by susceptibility testing in liquid media. MICs for compounds against each strain were determined by a broth microdilution method according to the National Committee for Clinical Laboratory Standards (NCCLS) guidelines. (NCCLS. 2000. Methods for dilution antimicrobial susceptibility tests for bacteria that grow aerobically—fifth edition. Approved standard M7-A5. NCCLS, Wayne, Pa.)
Briefly, test compounds are prepared in 100 μl of 1.6% DMSO solution in multiwell plates. Several bacterial colonies from a freshly streaked plate are transferred to an appropriate rich broth, such as Mueller Hinton. The cell suspension is adjusted to an optical density of 0.09 and further diluted 1:100 with warm 2× broth. This cell suspension is dispensed into the wells containing compound solution so that the final volume is 200 μl. The plates are incubated overnight (16-20 hours) at 37° C. and turbidity is scored by eye and quantified spectrophotometrically. The MIC is defined as the lowest concentration inhibiting visible growth.
Some of the Examples were also tested for activity against other bacterial species. […] Activities were again scored as ‘A’ if the MIC was ≦8 micrograms/ml, ‘B’ if the MIC was 16 to 64 micrograms/ml and ‘C’ if the MIC was greater than 64 micrograms/ml.

[3] = Staphylococcus haemolyticus, ATCC29970, read-out: MIC Activity Staphylococcus haemolyticus ATCC 29970
[4] = Staphylococcus epidermidis, ATCC12228, read-out: MIC Activity Staphylococcus epidermidis ATCC 12228
[5] = Staphylococcus saprophyticus, ATCC15305, read-out: MIC Activity Staphylococcus saprophyticus ATCC 15305

Measured: MIC

CCCc1ccc2sc(COc3ccc(F)c(C(N)=O)c3F)nc2c1 [Example 135, 2,6-Difluoro-3-(5-propyl-benzothiazol-2-ylmethoxy)-benzamide]
< 8 µg/mL: Bacillus subtilis 168CA | [1] | [2]; [3]

NC(=O)c1c(F)ccc(OCc2nc3ccccc3s2)c1F [Example 215, 3-(1,3-Benzothiazol-2-ylmethoxy)-2,6-difluorobenzenecarboxamide]
< 8 µg/mL: Bacillus subtilis 168CA | [1] | [2]; [4]

NC(=O)c1c(F)ccc(OCc2nc3cc(Cl)cnc3s2)c1F [Example 139, 3-(6-Chloro-thiazolo[5,4-b]pyridin-2-ylmethoxy)-2,6-difluoro-benzamide]
< 8 µg/mL: Bacillus subtilis 168CA | [1] | [2]; [4] | [2]; [3]

COc1ccc(-c2nc(COc3ccc(F)c(C(N)=O)c3F)sc2-c2ccccc2)cc1 [Example 287, 2,6-Difluoro-3-[4-(4-methoxy-phenyl)-5-phenyl-thiazol-2-ylmethoxy]-benzamide]
< 8 µg/mL: Bacillus subtilis 168CA | [1] | [2]; [3]

C#CCCCCCCCCCOc1ccc(F)c(C(N)=O)c1F [Example 88, 2,6-Difluoro-3-(10-undecynyloxy)benzenecarboxamide]
< 8 µg/mL: Bacillus subtilis 168CA | [1] | [2]; [4]

C#CCCCCCCCCCOc1cccc(C(N)=O)c1 [Example 46, 3-(10-Undecynyloxy)benzenecarboxamide]
< 8 µg/mL: Bacillus subtilis 168CA | [1] | [2]; [4]

CCCCCCCCCOc1cccc(C(N)=O)c1F [Example 175, 2-Fluoro-3-(nonyloxy)benzenecarboxamide]
< 8 µg/mL: Bacillus subtilis 168CA | [1] | [2]; [4]

NC(=O)c1c(F)ccc(OCc2nc3cc(-c4ccccc4)ccc3s2)c1F [Example 114, 2,6-Difluoro-3-(5-phenyl-benzothiazol-2-ylmethoxy)-benzamide]
< 8 µg/mL: Bacillus subtilis 168CA | [1] | [2]; Bacillus cereus, ATCC14579, read-out: MIC Activity Bacillus cereus ATCC 14579 | [2]; [5]

NC(=O)c1cccc(OCc2nc(-c3ccc(Cl)cc3)cs2)c1F [Example 271, 3-[4-(4-Chloro-phenyl)-thiazol-2-ylmethoxy]-2-fluoro-benzamide]
< 8 µg/mL: Bacillus subtilis 168CA | [1] | [2]; [4]

COc1ccc(-c2nc(COc3ccc(F)c(C(N)=O)c3F)sc2-c2ccc(OC)cc2)cc1 [Example 282, 2,6-Difluoro-3-[5-(4-methoxy-phenyl)-4-(4-methoxy-phenyl)-thiazol-2-ylmethoxy]-benzamide]
< 8 µg/mL: Bacillus subtilis 168CA | [1] | [2]; [4]

NC(=O)c1c(F)ccc(OCc2ccc3ccc(Cl)cc3n2)c1F [Example 111, 3-(7-Chloro-quinolin-2-ylmethoxy)-2,6-difluoro-benzamide]
< 8 µg/mL: Bacillus subtilis 168CA | [1] | [2]; [5]

CCCCCC/C=C/COc1ccc(F)c(C(N)=O)c1F [Example 84, 2,6-Difluoro-3-[(E)-2-nonenyloxy]benzenecarboxamide]
< 8 µg/mL: Bacillus subtilis 168CA | [1] | [2]; [4]

CCCC/C=C\CCCCOc1ccc(F)c(C(N)=O)c1F [Example 87, 2,6-Difluoro-3-[(Z)-5-decenyloxy]benzenecarboxamide]
< 8 µg/mL: Bacillus subtilis 168CA | [1] | [2]; [4]

COc1ccc(-c2coc(COc3ccc(F)c(C(N)=O)c3F)n2)cc1 [Example 311, 2,6-Difluoro-3-[4-(4-methoxy-phenyl)-oxazol-2-ylmethoxy]-benzamide]
< 8 µg/mL: Bacillus subtilis 168CA | [1] | [2]; [4]

C#CCCCCCCCCCOc1cccc(C(N)=O)c1F [Example 177, 2-Fluoro-3-(10-undecynyloxy)benzenecarboxamide]
< 8 µg/mL: Bacillus subtilis 168CA | [1] | [2]; [4]
